Measurements published in patent publication US10104891B2 (priority 2014, dated 2018).

Tests used:
Assay type in all cases: in vivo
[1] = test system: Pythium graminicola; experiment: Test 4: control effect against rice damping-off by the Pythium fungus (soil lavage); details: 1,000 ppm, 2.5 ml test suspension drenched on contaminated soil, rice (koshihikari)
Protocol: A 10% wettable powder created according to the Pharmaceutical Formulation Example 1 was diluted with a Tween20 solution prepared to a concentration of 1/5000, then the compound of formula [1] was prepared to a concentration of 4 ppm. Further, the compound of formula [1] in Test 4 was adjusted to a concentration of 1,000 ppm.
<Test 4 Test of Control Effect Against Rice Damping-Off by the Pythium Fungus (Soil Lavage)>
Distilled water was added to the flora of Pythium graminicola cultured in bentoglass seed culture and stirred with a mixer, and adjusted the contaminated soil to 5 g of bacteria against 1 kg of soil.
In a cell tray having 31×31 mm^2 per cell, 20 ml of the contaminated soil was filled in each cell, and 3 seeds of rice chaff that has been forced to sprout (Species: koshihikari) were seeded, and 5 ml of soil was added for covering, then 2.5 ml of test suspension was drenched, and the seeds were incubated in a moist chamber adjusted to 28° C. for 72 hr to induce sprouting. Then, in a low temperature room of 5° C., the onset of disease was induced for 2 days, then the disease was nurtured for 14 days in a room of 25° C.
The soil was washed, and the apoptosis strain, growth restrained strain, and a healthy strain were measured and the onset rate was calculated by the following formula. Onset rate=[Σ(onset strain number by level×onset index)/(investigated strain×3)]×100 [Onset Index]
1: Growth restrained strain
Also, the following formula was used to compute the control value from the obtained onset index. control value={1−onset area rate at the section applied the test agent/onset area rate of untreated section}×100 Computational formula of the control value: […]

[2] = test system: Pseudoperonospora cubensis; experiment: Test 2: control effect against cucumber downy mildew; details: Pseudoperonospora cubensis, 120 h, control value vs untreated section
In short: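 Cucumber (Sagami hanjiro) at 2-leaf stage sprayed with 4 ppm compound from 10% wettable powder in Tween20 (1/5000); inoculated next day with P. cubensis zoospores, 1.0×10^4 units/ml, 16 hr moist chamber at 22° C. Lesion area rate scored 5 days post-inoculation; control value = (1 − treated/untreated onset area rate)×100.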

[3] = test system: Phytophthora infestans; experiment: whole plant or invertebrate; details: Phytophthora infestans, in Solanum lycopersicum, 96 h, read-out: control value (Test 1)
[4] = test system: Plasmopara viticola; experiment: Test 3: control effect against grape downy mildew; details: Plasmopara viticola, 120 h, control value vs untreated section
In short: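 Neomuscat grape seedlings were sprayed with compound at 4 ppm, diluted from a 10% wettable powder in Tween20 solution. One day later they were inoculated with Plasmopara viticola zoospores at 1.0×10^4 units/ml and held moist at 22° C. for 16 hr. Control value was derived from leaf lesion area at 5 days versus untreated leaves.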

SMILES | pest or weed control at 1000 ppm [1] [%] | pest or weed control at 4 µg/mL [2] [%] | pest or weed control at 4 µg/mL [3] [%] | pest or weed control at 4 µg/mL [4] [%]
Cc1ccc(C)c(N(C)C(=O)N2CCC(c3nc(C4OCc5cccc(OS(C)(=O)=O)c5CO4)cs3)CC2)c1 (stereo not drawn) [Compound 2-56, 4-[4-(6-methylsulfonyloxy-1,5-dihydro-3H-2,4-benzodioxepin-3-yl)-2-thiazolyl]-1-[N-(2,5-dimethylphenyl)-N-methylcarbamoyl]piperidine] | ≥ 90 | 30 | 90 | 70
O=C(Cn1nc(C(F)(F)F)cc1C(F)(F)F)N1CCC(c2nc(C3OCc4c(F)ccc(F)c4CO3)cs2)CC1 [Compound 1-50, 4-[4-(6,9-difluoro-1,5-dihydro-3H-2,4-benzodioxepin-3-yl)-2-thiazolyl]-1-[2-[3,5-bis(trifluoromethyl)-1H-pyrazole-1-yl]acetyl]piperidine] | ≥ 90 | 100 | 100 | 100
CS(=O)(=O)Oc1cccc2c1COC(c1csc(C3CCN(C(=O)Cc4cc(Cl)ccc4Cl)CC3)n1)OC2 (stereo not drawn) [Compound 2-2, 4-[4-(6-methylsulfonyloxy-1,5-dihydro-3H-2,4-benzodioxepin-3-yl)-2-thiazolyl]-1-[2-(2,5-dichlorophenyl)acetyl]piperidine] | ≥ 90 | 100 | 100 | 100
CS(=O)(=O)Oc1ccc(F)c2c1COC(c1csc(C3CCN(C(=O)Cn4nc(C(F)F)cc4C(F)F)CC3)n1)OC2 (stereo not drawn) [Compound 1-62, 4-[4-(6-fluoro-9-methylsulfonyloxy-1,5-dihydro-3H-2,4-benzodioxepin-3-yl)-2-thiazolyl]-1-[2-[3,5-bis(difluoromethyl)-1H-pyrazole-1-yl]acetyl]piperidine] | ≥ 90 | 100 | 100 | 100
CC(=O)Oc1cccc2c1COC(c1csc(C3CCN(C(=O)Cn4nc(C(F)(F)F)cc4C)CC3)n1)OC2 (stereo not drawn) [Compound 1-144, 4-[4-(6-acetoxy-1,5-dihydro-3H-2,4-benzodioxepin-3-yl)-2-thiazolyl]-1-[2-[5-methyl-3-(trifluoromethyl)-1H-pyrazole-1-yl]acetyl]piperidine] | ≥ 90 | 100 | 100 | 100
O=C(Cn1nc(C(F)(F)F)cc1C(F)(F)F)N1CCC(c2nc(C3OCc4c(F)c(F)c(F)c(F)c4CO3)cs2)CC1 [Compound 1-84, 4-[4-(6,7,8,9-tetrafluoro-1,5-dihydro-3H-2,4-benzodioxepin-3-yl)-2-thiazolyl]-1-[2-[3,5-bis(trifluoromethyl)-1H-pyrazole-1-yl]acetyl]piperidine] | ≥ 90 | 100 | 100 | 100
O=C(Cc1cc(Cl)ccc1Cl)N1CCC(c2nc(C3OCc4c(F)c(F)c(F)c(F)c4CO3)cs2)CC1 [Compound 2-29, 4-[4-(6,7,8,9-tetrafluoro-1,5-dihydro-3H-2,4-benzodioxepin-3-yl)-2-thiazolyl]-1-[2-(2,5-dichlorophenyl)acetyl]piperidine] | ≥ 90 | 100 | 100 | 100
Cc1cc(C(F)(F)F)nn1CC(=O)N1CCC(c2nc(C3OCc4cccc(C=NO)c4CO3)cs2)CC1 (stereo not drawn) [Compound 1-96, 4-[4-[6-(hydroxyimino)methyl-1,5-dihydro-3H-2,4-benzodioxepin-3-yl]-2-thiazolyl]-1-[2-[5-methyl-3-(trifluoromethyl)-1H-pyrazole-1-yl]acetyl]piperidine] | ≥ 90 | 100 | 100 | 100
O=C(Cc1cc(Cl)ccc1Cl)N1CCC(c2nc(C3OCc4cccc(Cl)c4CO3)cs2)CC1 (stereo not drawn) [Compound 2-22, 4-[4-(6-chloro-1,5-dihydro-3H-2,4-benzodioxepin-3-yl)-2-thiazolyl]-1-[2-(2,5-dichlorophenyl)acetyl]piperidine] | ≥ 90 | 100 | 100 | 100
COc1ccc(Cl)c2c1COC(c1csc(C3CCN(C(=O)Cc4cc(Cl)ccc4Cl)CC3)n1)OC2 (stereo not drawn) [Compound 2-23, 4-[4-(6-chloro-9-methoxy-1,5-dihydro-3H-2,4-benzodioxepin-3-yl)-2-thiazolyl]-1-[2-(2,5-dichlorophenyl)acetyl]piperidine] | ≥ 90 | 100 | 100 | 100
Cc1cc(C(F)(F)F)nn1CC(=O)N1CCC(c2nc(C3OCc4cccc(S(C)(=O)=O)c4CO3)cs2)CC1 (stereo not drawn) [Compound 1-47, 4-[4-(6-methylsulfonyl-1,5-dihydro-3H-2,4-benzodioxepin-3-yl)-2-thiazolyl]-1-[2-[5-methyl-3-(trifluoromethyl)-1H-pyrazole-1-yl]acetyl]piperidine] | ≥ 90 | 100 | 100 | 100
Cc1ccc(C)c(CC(=S)N2CCC(c3nc(C4OCc5c(F)ccc(OS(C)(=O)=O)c5CO4)cs3)CC2)c1 (stereo not drawn) [Compound 2-57, 4-[4-(6-fluoro-9-methylsulfonyloxy-1,5-dihydro-3H-2,4-benzodioxepin-3-yl)-2-thiazolyl]-1-[2-(2,5-dimethylphenyl)thioacetyl]piperidine] | ≥ 90 | 100 | 100 | 100
Cc1ccc(C)c(CC(=O)N2CCC(c3nc(C4OCc5ccc([N+](=O)[O-])cc5CO4)cs3)CC2)c1 (stereo not drawn) [Compound 2-18, 4-[4-(7-nitro-1,5-dihydro-3H-2,4-benzodioxepin-3-yl)-2-thiazolyl]-1-[2-(2,5-dimethylphenyl)acetyl]piperidine] | ≥ 90 | 100 | 100 | 100
Cc1cc(C(F)(F)F)nn1CC(=O)N1CCC(c2nc(C3OCc4cccc(CC#N)c4CO3)cs2)CC1 (stereo not drawn) [Compound 1-72, 4-[4-[6-(cyanomethyl)-1,5-dihydro-3H-2,4-benzodioxepin-3-yl]-2-thiazolyl]-1-[2-[5-methyl-3-(trifluoromethyl)-1H-pyrazole-1-yl]acetyl]piperidine] | ≥ 90 | 100 | 100 | 100
Cc1cc(C(F)(F)F)nn1CC(=O)N1CCC(c2nc(C3OCc4ccc(C(C)(C)C)cc4CO3)cs2)CC1 (stereo not drawn) [Compound 1-79, 4-[4-(7-tert-butyl-1,5-dihydro-3H-2,4-benzodioxepin-3-yl)-2-thiazolyl]-1-[2-[5-methyl-3-(trifluoromethyl)-1H-pyrazole-1-yl]acetyl]piperidine] | ≥ 90 | 90 | 100 | 90
Cc1cc(C(F)(F)F)nn1CC(=O)N1CCC(c2nc(C3OCc4cccc(OS(=O)(=O)C(F)(F)F)c4CO3)cs2)CC1 (stereo not drawn) [Compound 1-36, 4-[4-[6-(trifluoromethyl)sulfonyloxy-1,5-dihydro-3H-2,4-benzodioxepin-3-yl]-2-thiazolyl]-1-[2-[5-methyl-3-(trifluoromethyl)-1H-pyrazole-1-yl]acetyl]piperidine] | ≥ 90 | 100 | 100 | 100
O=C(Cn1nc(C(F)(F)F)cc1C(F)(F)F)N1CCC(c2nc(C3OCc4ccc([N+](=O)[O-])cc4CO3)cs2)CC1 (stereo not drawn) [Compound 1-95, 4-[4-(7-nitro-1,5-dihydro-3H-2,4-benzodioxepin-3-yl)-2-thiazolyl]-1-[2-[3,5-bis(trifluoromethyl)-1H-pyrazole-1-yl]acetyl]piperidine] | ≥ 90 | 100 | 100 | 100
Cc1ccc(C)c(CC(=O)N2CCC(c3nc(C4OCc5ccccc5C(C)O4)cs3)CC2)c1 (stereo not drawn) [Compound 2-13, 4-[4-(1-methyl-1,5-dihydro-3H-2,4-benzodioxepin-3-yl)-2-thiazolyl]-1-[2-(2,5-dimethylphenyl)acetyl]piperidine] | ≥ 90 | 100 | 50 | 100
